We go through one molecule from US20070082952A1, “Pharmaceutical compositions, methods of preparation thereof, and methods of treatment” (priority 2005, published 2007).

Series [1] in a line: aqueous solubility. It counts as physicochemical. An excerpt:
An obstacle to the use of 3-biphenyl-4-yl-(2S)-[(4′-trifluoromethyl-biphenyl-4-carbonyl)-amino]-propionic acid in certain pharmacological forms is its aqueous solubility (less than 0.5 micrograms/milliliter (μg/mL)), which may make the bioavailability of biphenyl-4-yl-(2S)-[(4′-trifluoromethyl-biphenyl-4-carbonyl)-amino]-propionic acid lower than desirable. A composition of the present invention, having an increased dissolution rate, advantageously enhances the bioavailability of 3-biphenyl-4-yl-(2S)-[(4′-trifluoromethyl-biphenyl-4-carbonyl)-amino]-propionic acid, particularly when dosed orally.

Series [2] in a line: Dissolution, USP method 2 (paddles at 75 rpm, 0.025 M NaH2PO4 with 2% SDS, pH 6.8). It counts as physicochemical. The following applies: 2×100 mg, pH 6.8, paddles 75 rpm. The protocol: Dissolution of the wet granulation tablets of Example 1 and the dry formulation capsules of Example 2 was determined using USP method 2 (paddles at 75 rpm, 0.025 M NaH2PO4 with 2% sodium dodecyl sulfate (SDS), pH 6.8).

On to `O=C(N[C@@H](Cc1ccc(-c2ccccc2)cc1)C(=O)O)c1ccc(-c2ccc(C(F)(F)F)cc2)cc1` [3-biphenyl-4-yl-(2S)-[(4′-trifluoromethyl-biphenyl-4-carbonyl)-amino]-propionic acid], for which the aqueous solubility entry in series [1] is reported as “less than 0.5 μg/mL”. Also, the “Percent 3-Biphenyl-4-yl-(2S)-[(4′-trifluoromethyl-biphenyl-4-carbonyl)-amino]-propionic acid Dissolved” value in series [2] (Time 0 min) stood at 0%; in series [2] (Time 15 min), 43.2%; in series [2] (Time 30 min), 57.0%; in series [2] (Time 45 min) it was 67.3%; in series [2] (Time 60 min) it was 73.9%.
